Test results published in PubChem BioAssay AID330 (DTP/NCI, 2004).
“And” between values parts separate entries of the source, which are not always exact repeats. Equal values may be shown once. Toxic doses and inconclusive results are not listed. Rule for the calls: active = survival T/C of 150% or more; inactive = T/C below 125% in these data.

Tested on: P388 leukemia ip, CD2F1 mice, survival T/C
Experiment: NCI In Vivo Anticancer Drug Screen. Data for tumor model P388 Leukemia (intraperitoneal) in CD2F1 (CDF1) mice
Conditions: endpoint: median survival time, higher = longer survival
In short: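 Mice carrying the transplanted tumor received test compound or vehicle. Survival was recorded in each group, and the value is the treated-group measurement divided by that of the vehicle-treated control group.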

[1] = dose: 50.0 mg/kg/injection, schedule: Q01DX009 (ip), vehicle: saline with Tween-80
[2] = dose: 100.0 mg/kg/injection, schedule: Q01DX009 (ip), vehicle: saline with Tween-80
[3] = dose: 200.0 mg/kg/injection, schedule: Q01DX009 (ip), vehicle: saline with Tween-80
[4] = dose: 50.0 mg/kg/injection, schedule: Q01DX009 (ip), vehicle: saline
[5] = dose: 100.0 mg/kg/injection, schedule: Q01DX009 (ip), vehicle: saline
[6] = dose: 200.0 mg/kg/injection, schedule: Q01DX009 (ip), vehicle: saline
[7] = dose: 50.0 mg/kg/injection, schedule: Q01DX005 (ip), vehicle: Klucel (hydroxypropylcellulose) (HPC)
[8] = dose: 100.0 mg/kg/injection, schedule: Q01DX005 (ip), vehicle: Klucel (hydroxypropylcellulose) (HPC)
[9] = dose: 200.0 mg/kg/injection, schedule: Q01DX005 (ip), vehicle: Klucel (hydroxypropylcellulose) (HPC)
[10] = dose: 30.0 mg/kg/injection, schedule: Q01DX005 (ip), vehicle: saline with Tween-80
[11] = dose: 60.0 mg/kg/injection, schedule: Q01DX005 (ip), vehicle: saline with Tween-80
[12] = dose: 120.0 mg/kg/injection, schedule: Q01DX005 (ip), vehicle: saline with Tween-80
[13] = dose: 240.0 mg/kg/injection, schedule: Q01DX005 (ip), vehicle: saline with Tween-80
[14] = dose: 6.25 mg/kg/injection, schedule: Q01DX009 (ip), vehicle: saline with Tween-80
[15] = dose: 12.5 mg/kg/injection, schedule: Q01DX009 (ip), vehicle: saline with Tween-80
[16] = dose: 25.0 mg/kg/injection, schedule: Q01DX009 (ip), vehicle: saline with Tween-80
[17] = dose: 60.0 mg/kg/injection, schedule: Q01DX005 (ip), vehicle: Klucel (hydroxypropylcellulose) (HPC)
[18] = dose: 120.0 mg/kg/injection, schedule: Q01DX005 (ip), vehicle: Klucel (hydroxypropylcellulose) (HPC)
[19] = dose: 240.0 mg/kg/injection, schedule: Q01DX005 (ip), vehicle: Klucel (hydroxypropylcellulose) (HPC)
[20] = dose: 400.0 mg/kg/injection, schedule: Q01DX009 (ip), vehicle: saline with Tween-80
[21] = dose: 100.0 mg/kg/injection, schedule: Q04DX003 (ip), vehicle: saline
[22] = dose: 200.0 mg/kg/injection, schedule: Q04DX003 (ip), vehicle: saline

Measured: T/C

O=C(Nc1ccc(OCCCCCOc2ccccc2)cc1)C(F)(F)F
inactive: [1] 100 % of control | [2] 116 % of control | [3] 114 % of control

CC1CCCCC1OC(=O)Nc1ccccc1 (stereo not given)
inactive: [4] 105 % of control | [5] 101 % of control | [6] 100 % of control

COC(=O)[C@]1(C)CCC[C@@]2(C)[C@@H]3C[C@@H]4[C@H]5C[C@@]3(CC[C@@H]21)C[C@@]45C
inactive: dose: 25.0 mg/kg/injection, schedule: Q01DX005 (ip), vehicle: Klucel (hydroxypropylcellulose) (HPC) 100 % of control | [7] 97 % of control | [8] 97 % of control | [9] 95 % of control

Cc1c(NC(=O)CCl)c(=O)oc2c(C)c3occc(=O)c3cc12
inactive: [10] 100 % of control | [11] 89 % of control and 97 % of control | [12] 90 % of control | [13] 99 % of control

NC(=S)c1ccc(N)cc1
inactive: dose: 100.0 mg/kg/injection, schedule: Q04DX003 (ip), vehicle: Klucel (hydroxypropylcellulose) (HPC) 100 % of control | dose: 200.0 mg/kg/injection, schedule: Q04DX003 (ip), vehicle: Klucel (hydroxypropylcellulose) (HPC) 106 % of control

CS(=O)(=O)CCCCCCCCCCS(C)(=O)=O
inactive: dose: 100.0 mg/kg/injection, schedule: Q01DX001 (ip), vehicle: saline 95 % of control | dose: 200.0 mg/kg/injection, schedule: Q01DX001 (ip), vehicle: saline 100 % of control | dose: 400.0 mg/kg/injection, schedule: Q01DX001 (ip), vehicle: saline 93 % of control

CCc1c(-c2ccc(Cl)cc2)nc(N)nc1-c1nc(N)nc(-c2ccc(Cl)cc2)c1CC
inactive: dose: 60.0 mg/kg/injection, schedule: Q01DX005 (ip), vehicle: saline 100 % of control | dose: 120.0 mg/kg/injection, schedule: Q01DX005 (ip), vehicle: saline 100 % of control

COc1cc2c(NCCCCCO)ncnc2c(OC)c1OC
inactive: [4] 105 % of control | [5] 105 % of control | [6] 102 % of control

C/C(=C\C(=O)c1cccc(F)c1)N1CCN(c2cccc(C(F)(F)F)c2)CC1
inactive: [7] 93 % of control | [8] 94 % of control

CC(C)(C)N1OC2C=CC1CC2O (stereo not given) (tested in a mixture with another compound)
inactive: dose: 25.0 mg/kg/injection, schedule: Q01DX001 (ip), vehicle: Klucel (hydroxypropylcellulose) (HPC) 113 % of control | dose: 50.0 mg/kg/injection, schedule: Q01DX001 (ip), vehicle: Klucel (hydroxypropylcellulose) (HPC) 114 % of control | dose: 100.0 mg/kg/injection, schedule: Q01DX001 (ip), vehicle: Klucel (hydroxypropylcellulose) (HPC) 107 % of control

Cc1cccc(N=Nc2c(-c3ccccc3)nn(C(=S)S)c2C)c1C
inactive: dose: 12.5 mg/kg/injection, schedule: Q01DX001 (ip), vehicle: saline with Tween-80 100 % of control | dose: 25.0 mg/kg/injection, schedule: Q01DX001 (ip), vehicle: saline with Tween-80 96 % of control | dose: 50.0 mg/kg/injection, schedule: Q01DX001 (ip), vehicle: saline with Tween-80 96 % of control | dose: 200.0 mg/kg/injection, schedule: Q01DX001 (ip), vehicle: saline with Tween-80 91 % of control | dose: 400.0 mg/kg/injection, schedule: Q01DX001 (ip), vehicle: saline with Tween-80 99 % of control

N#Cc1ncc(-c2ccccc2)nc1Cl
inactive: [14] 100 % of control | [15] 104 % of control | [16] 100 % of control | [1] 110 % of control | dose: 50.0 mg/kg/injection, schedule: Q04DX003 (ip), vehicle: saline with Tween-80 100 % of control | [2] 120 % of control | dose: 100.0 mg/kg/injection, schedule: Q04DX003 (ip), vehicle: saline with Tween-80 105 % of control | dose: 200.0 mg/kg/injection, schedule: Q04DX003 (ip), vehicle: saline with Tween-80 100 % of control

CC(=O)C[n+]1ccccc1-c1ccccc1C
inactive: dose: 50.0 mg/kg/injection, schedule: Q01DX005 (ip), vehicle: saline with Tween-80 103 % of control

O=C(O)c1cnc2cc3c(cc2c1Nc1ccc2c(c1)OCO2)OCO3
inactive: [17] 93 % of control | [18] 92 % of control | [19] 96 % of control

O=S(=O)(O)C(Nc1ccccc1)c1ccccc1 (stereo not given)
inactive: [2] 100 % of control | dose: 100.0 mg/kg/injection, schedule: Q04DX003 (ip), vehicle: saline sonified 100 % of control | [3] 109 % of control | dose: 200.0 mg/kg/injection, schedule: Q04DX003 (ip), vehicle: saline sonified 100 % of control | [20] 104 % of control | dose: 400.0 mg/kg/injection, schedule: Q04DX003 (ip), vehicle: saline sonified 100 % of control

CC(=O)Oc1ccc(OC(C)=O)c2cc3c(cc12)C(=O)C(C)=C(C)C3=O
inactive: [7] 89 % of control | [8] 97 % of control | [9] 111 % of control

CC(C)COC1CCc2ncccc2O1 (stereo not given)
inactive: [4] 104 % of control | [5] 104 % of control | [6] 103 % of control

CCN(CC)[Si](C)(C)N(CC)CC
inactive: [10] 100 % of control | [11] 100 % of control | [12] 104 % of control

COC(=O)N/N=C\c1ccc(O)c(OC)c1
inactive: dose: 50.0 mg/kg/injection, schedule: Q04DX003 (ip), vehicle: saline 97 % of control | [21] 101 % of control | [22] 97 % of control | dose: 400.0 mg/kg/injection, schedule: Q04DX003 (ip), vehicle: saline 101 % of control

O=C(OCC1C=C(OC(=O)c2ccccc2)C(=O)C(OC(=O)c2ccccc2)O1)c1ccccc1 (stereo not given)
inactive: [14] 98 % of control | [15] 94 % of control | [16] 86 % of control | [1] 89 % of control | [2] 93 % of control | [3] 102 % of control

CC(C)(C)C(CO)CNc1ccccc1 (stereo not given)
inactive: dose: 50.0 mg/kg/injection, schedule: Q01DX009 (ip), vehicle: Klucel (hydroxypropylcellulose) (HPC) 110 % of control | dose: 100.0 mg/kg/injection, schedule: Q01DX009 (ip), vehicle: Klucel (hydroxypropylcellulose) (HPC) 110 % of control | dose: 200.0 mg/kg/injection, schedule: Q01DX009 (ip), vehicle: Klucel (hydroxypropylcellulose) (HPC) 107 % of control

CC(=O)NS(=O)(=O)c1ccc(NC(=O)c2ccco2)cc1
inactive: dose: 50.0 mg/kg/injection, schedule: Q01DX009 (ip), vehicle: saline + alcohol 98 % of control | dose: 100.0 mg/kg/injection, schedule: Q01DX009 (ip), vehicle: saline + alcohol 104 % of control | dose: 200.0 mg/kg/injection, schedule: Q01DX009 (ip), vehicle: saline + alcohol 91 % of control

CC(C)CCCC(C)C1CCC2C3CCC4C5Oc6ccccc6N=C5CCC4(C)C3CCC12C (stereo not given)
inactive: [17] 92 % of control | [18] 97 % of control | [19] 93 % of control

O=C(Nc1ccc(-c2c[nH]c(=O)c([N+](=O)[O-])c2)cc1)OCc1ccccc1
inactive: [14] 95 % of control | [15] 95 % of control

COc1ccc(CCN2C(=O)NC(=O)C2=O)cc1OC
inactive: [11] 97 % of control | [12] 101 % of control | [13] 97 % of control

COP(=O)(O)Oc1ccccc1 (tested in a mixture with another compound)
inactive: [4] 101 % of control | [5] 100 % of control | [6] 99 % of control

C/C=C1\C[N+]2(C)C3CC1C(C[O-])(C(=O)OC)C2Cc1c3[nH]c2ccccc12 (stereo not given)
inactive: dose: 0.75 mg/kg/injection, schedule: Q01DX005 (ip), vehicle: Klucel (hydroxypropylcellulose) (HPC) 97 % of control | dose: 1.5 mg/kg/injection, schedule: Q01DX005 (ip), vehicle: Klucel (hydroxypropylcellulose) (HPC) 91 % of control | dose: 3.0 mg/kg/injection, schedule: Q01DX005 (ip), vehicle: Klucel (hydroxypropylcellulose) (HPC) 96 % of control | dose: 6.0 mg/kg/injection, schedule: Q01DX005 (ip), vehicle: Klucel (hydroxypropylcellulose) (HPC) 92 % of control

COc1ccc(N=C/C=C/c2ccccc2)cc1
inactive: [2] 118 % of control | [3] 118 % of control | [20] 118 % of control

CCOc1ccc2nc3cc(N=Nc4c(C)c(CN(CC)CC)cc(C)c4O)ccc3c(N)c2c1
inactive: [1] 108 % of control | [2] 100 % of control | [3] 106 % of control

O=c1c2ccccc2cnn1CO
inactive: [21] 114 % of control | [22] 119 % of control
